Experimental data as given in patent publication US9073855B2, “BCL-2 selective apoptosis-inducing agents for the treatment of cancer and immune diseases” (AbbVie Inc., priority 2008, dated 2015).

Tests used:
FL5.12/Bcl-2 cells = experiment: FL5.12/Bcl-2 cell viability assay under IL-3 withdrawal (CellTitre Glo); type: cell-based, murine; settings: Mus musculus, IL-3 withdrawn 48 hrs, then 24 hrs with compound
Text: FL5.12 is an IL-3 dependent prolymphocytic murine cell line that undergoes apoptosis upon IL-3 withdrawal as a result of the upregulation of pro-apoptotic Bcl-2 proteins such as Bim and Puma. Stable overexpression of anti-apoptotic Bcl-2 protein (FL5.12/Bcl-2) protects against apoptosis induced by IL-3 withdrawal by sequestration of Bim and Puma. […] The ability of compounds to kill FL5.12/Bcl-2 cells upon IL-3 withdrawal is a direct measure of the compounds' ability to inhibit anti-apoptotic Bcl-2 protein function.
Wild type FL5.12/Bcl-2 overexpressing stable transfectants were cultured in RPMI-1640 supplemented with 2 mM L-glutamine, 10% FBS, 1 mM sodium pyruvate, 2 mM HEPES, 1% penicillin/streptomycin (Invitrogen), 57 μM β-ME, and 10% WEHI-3B conditioned medium (source of IL-3) and maintained at 37° C. containing 5% CO2. 1×10^6 cells/ml were washed 1×PBS and resuspended in medium not supplemented with 10% WEHI-3B for 48 hrs prior to cytotoxicity assays. Cells were then treated for an additional 24 hrs in the presence of various concentrations of the indicated compounds. Cell viability was assessed by CellTitre Glo assay (Promega Corp.) according to the manufacturer's recommendations.

GST-Bcl-2 = GST-Bcl-2 (Homo sapiens, UniProt P10415); experiment: TR-FRET binding assay, GST-Bcl-2 with F-Bak peptide probe; settings: TR-FRET Binding Affinity, GST-Bcl-2, F-Bak peptide probe
GST-Bcl-2, sequence (P10415 whole entry, the tested form may be a part): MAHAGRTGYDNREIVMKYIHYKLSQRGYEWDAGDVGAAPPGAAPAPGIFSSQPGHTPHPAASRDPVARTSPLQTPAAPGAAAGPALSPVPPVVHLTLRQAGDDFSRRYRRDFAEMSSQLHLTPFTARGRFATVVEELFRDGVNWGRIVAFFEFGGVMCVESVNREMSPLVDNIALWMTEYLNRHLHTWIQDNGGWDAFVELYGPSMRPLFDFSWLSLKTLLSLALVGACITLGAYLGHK
Procedure, shortened: (§1)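 Competitive TR-FRET: GST-fusion protein, fluorescent Bak peptide probe and Tb-labelled anti-GST antibody incubated with compound dilution series (starting 50 μM as 2× stock, 10% DMSO) for 3 h at RT. Excitation 340/35 nm; Ki derived via Wang's exact competitive-binding equation.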

GST-Bcl-XL = GST-Bcl-XL (Homo sapiens, UniProt Q07817); experiment: TR-FRET binding assay, GST-Bcl-XL with F-Bak peptide probe; settings: TR-FRET Binding Affinity, GST-Bcl-XL, F-Bak peptide probe
GST-Bcl-XL, sequence (Q07817 whole entry): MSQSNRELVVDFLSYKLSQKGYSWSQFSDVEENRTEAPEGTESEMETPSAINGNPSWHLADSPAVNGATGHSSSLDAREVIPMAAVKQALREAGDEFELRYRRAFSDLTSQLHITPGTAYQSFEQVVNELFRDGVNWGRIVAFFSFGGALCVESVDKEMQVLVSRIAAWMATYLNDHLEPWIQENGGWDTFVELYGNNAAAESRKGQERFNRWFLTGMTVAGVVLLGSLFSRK
Procedure, shortened: as §1

| SMILES | EC50 (FL5.12/Bcl-2 cells) [nM] | Ki (GST-Bcl-2) [nM] | Ki (GST-Bcl-XL) [nM] |
| --- | --- | --- | --- |
| CC(c1ccccc1-c1ccc(Cl)cc1)N1CCN(c2ccc(C(=O)NS(=O)(=O)c3ccc(NCC4CCOCC4)c([N+](=O)[O-])c3)c(Oc3cccc4[nH]ccc34)c2)CC1 (stereo not drawn) [Example 175, 4-{4-[1-(4′-chloro-1,1′-biphenyl-2-yl)ethyl]piperazin-1-yl}-2-(1H-indol-4-yloxy)-N-({3-nitro-4-[(tetrahydro-2H-pyran-4-ylmethyl)amino]phenyl}sulfonyl)benzamide] | 6.2 | 0.1 | > 660 |
| CC1(C)CCC(CN2CCN(c3ccc(C(=O)NS(=O)(=O)c4ccc(NCC5(N)CCOCC5)c([N+](=O)[O-])c4)c(Oc4cccc5[nH]ccc45)c3)CC2)=C(c2ccc(Cl)cc2)C1 [Example 176, N-[(4-{[(4-aminotetrahydro-2H-pyran-4-yl)methyl]amino}-3-nitrophenyl)sulfonyl]-4-(4-{[2-(4-chlorophenyl)-4,4-dimethylcyclohex-1-en-1-yl]methyl}piperazin-1-yl)-2-(1H-indol-4-yloxy)benzamide] | 58.5 | 0.18 | 32 |
| CC1(C)CCC(CN2CCN(c3ccc(C(=O)NS(=O)(=O)c4ccc(NCC5CCOCC5)c([N+](=O)[O-])c4)c(Oc4ccc5[nH]ccc5c4)c3)CC2)=C(c2ccc(Cl)cc2)C1 [Example 177, 4-(4-{[2-(4-chlorophenyl)-4,4-dimethylcyclohex-1-en-1-yl]methyl}piperazin-1-yl)-2-(1H-indol-5-yloxy)-N-({3-nitro-4-[(tetrahydro-2H-pyran-4-ylmethyl)amino]phenyl}sulfonyl)benzamide] | 19.7 | 0.165 | 132 |
| CC1(C)CC(c2ccc(Cl)cc2)=C(CN2CCN(c3ccc(C(=O)NS(=O)(=O)c4ccc(NCC5CCOCC5)c([N+](=O)[O-])c4)c(Oc4ccc5[nH]ccc5c4)c3)CC2)CO1 [Example 182, 4-(4-{[4-(4-chlorophenyl)-6,6-dimethyl-5,6-dihydro-2H-pyran-3-yl]methyl}piperazin-1-yl)-2-(1H-indol-5-yloxy)-N-({3-nitro-4-[(tetrahydro-2H-pyran-4-ylmethyl)amino]phenyl}sulfonyl)benzamide] | 12.4 | 0.087 | > 660 |
| CN1CCC(O)(CNc2ccc(S(=O)(=O)NC(=O)c3ccc(N4CCN(CC5=C(c6ccc(Cl)cc6)CC(C)(C)CC5)CC4)cc3Oc3ccc4[nH]ccc4c3)cc2[N+](=O)[O-])CC1 [Example 183, 4-(4-{[2-(4-chlorophenyl)-4,4-dimethylcyclohex-1-en-1-yl]methyl}piperazin-1-yl)-N-[(4-{[(4-hydroxy-1-methylpiperidin-4-yl)methyl]amino}-3-nitrophenyl)sulfonyl]-2-(1H-indol-5-yloxy)benzamide] | 30.8 | 0.039 | 9.43 |
| CN1CCC(Nc2ccc(S(=O)(=O)NC(=O)c3ccc(N4CCN(CC5=C(c6ccc(Cl)cc6)CC(C)(C)CC5)CC4)c(F)c3Oc3ccc4[nH]ccc4c3)cc2[N+](=O)[O-])CC1 [Example 184, 4-(4-{[2-(4-chlorophenyl)-4,4-dimethylcyclohex-1-en-1-yl]methyl}piperazin-1-yl)-3-fluoro-2-(1H-indol-5-yloxy)-N-({4-[(1-methylpiperidin-4-yl)amino]-3-nitrophenyl}sulfonyl)benzamide] | 27 | 0.281 | > 660 |
| CC1(C)CCC(CN2CCN(c3ccc(C(=O)NS(=O)(=O)c4ccc(NC5CCN(C6CCOCC6)CC5)c([N+](=O)[O-])c4)c(Oc4ccc5[nH]ccc5c4)c3F)CC2)=C(c2ccc(Cl)cc2)C1 [Example 185, 4-(4-{[2-(4-chlorophenyl)-4,4-dimethylcyclohex-1-en-1-yl]methyl}piperazin-1-yl)-3-fluoro-2-(1H-indol-5-yloxy)-N-({3-nitro-4-[(1-tetrahydro-2H-pyran-4-ylpiperidin-4-yl)amino]phenyl}sulfonyl)benzamide] | 63.4 | 0.228 | 82.6 |
| CN1CCC(O)(CNc2ccc(S(=O)(=O)NC(=O)c3ccc(N4CCN(CC5=C(c6ccc(Cl)cc6)CC(C)(C)CC5)CC4)cc3Oc3cccc4[nH]ccc34)cc2[N+](=O)[O-])CC1 [Example 186, 4-(4-{[2-(4-chlorophenyl)-4,4-dimethylcyclohex-1-en-1-yl]methyl}piperazin-1-yl)-N-[(4-{[(4-hydroxy-1-methylpiperidin-4-yl)methyl]amino}-3-nitrophenyl)sulfonyl]-2-(1H-indol-4-yloxy)benzamide] | 20.4 | 0.01 | 11.2 |
| CC1(C)CCC(CN2CCN(c3ccc(C(=O)NS(=O)(=O)c4ccc(N[C@@H]5CCN(Cc6ccccc6)C[C@@H]5O)c([N+](=O)[O-])c4)c(Oc4ccc5[nH]ccc5c4)c3)CC2)=C(c2ccc(Cl)cc2)C1 [Example 187, N-[(4-{[(3S,4R)-1-benzyl-3-hydroxypiperidin-4-yl]amino}-3-nitrophenyl)sulfonyl]-4-(4-{[2-(4-chlorophenyl)-4,4-dimethylcyclohex-1-en-1-yl]methyl}piperazin-1-yl)-2-(1H-indol-5-yloxy)benzamide] | 341 | 0.329 | > 660 |
| CC1(C)CCC(CN2CCN(c3ccc(C(=O)NS(=O)(=O)c4ccc(NCC5(N)CCOCC5)c([N+](=O)[O-])c4)c(Oc4ccc5[nH]ccc5c4)c3)CC2)=C(c2ccc(Cl)cc2)C1 [Example 188, N-[(4-{[(4-aminotetrahydro-2H-pyran-4-yl)methyl]amino}-3-nitrophenyl)sulfonyl]-4-(4-{[2-(4-chlorophenyl)-4,4-dimethylcyclohex-1-en-1-yl]methyl}piperazin-1-yl)-2-(1H-indol-5-yloxy)benzamide] | 24.7 | 0.102 | 115 |
| COCCN1CCC(Nc2ccc(S(=O)(=O)NC(=O)c3ccc(N4CCN(CC5=C(c6ccc(Cl)cc6)CC(C)(C)CC5)CC4)cc3Oc3ccc4[nH]ccc4c3)cc2[N+](=O)[O-])CC1 [Example 189, 4-(4-{[2-(4-chlorophenyl)-4,4-dimethylcyclohex-1-en-1-yl]methyl}piperazin-1-yl)-2-(1H-indol-5-yloxy)-N-[(4-{[1-(2-methoxyethyl)piperidin-4-yl]amino}-3-nitrophenyl)sulfonyl]benzamide] | 14.9 | 0.144 | 51.7 |
| CN1CCN(Nc2ccc(S(=O)(=O)NC(=O)c3ccc(N4CCN(CC5=C(c6ccc(Cl)cc6)CC(C)(C)CC5)CC4)cc3Oc3cccc4[nH]ccc34)cc2[N+](=O)[O-])CC1 [Example 190, 4-(4-{[2-(4-chlorophenyl)-4,4-dimethylcyclohex-1-en-1-yl]methyl}piperazin-1-yl)-2-(1H-indol-4-yloxy)-N-({4-[(4-methylpiperazin-1-yl)amino]-3-nitrophenyl}sulfonyl)benzamide] | 24.2 | 0.512 | 97.1 |
| CC1(C)CCC(CN2CCN(c3ccc(C(=O)NS(=O)(=O)c4ccc(NC5CCN(CCO)CC5)c([N+](=O)[O-])c4)c(Oc4cccc5[nH]ccc45)c3)CC2)=C(c2ccc(Cl)cc2)C1 [Example 191, 4-(4-{[2-(4-chlorophenyl)-4,4-dimethylcyclohex-1-en-1-yl]methyl}piperazin-1-yl)-N-[(4-{[1-(2-hydroxyethyl)piperidin-4-yl]amino}-3-nitrophenyl)sulfonyl]-2-(1H-indol-4-yloxy)benzamide] | 11.7 | 0.073 | 9.16 |
| COCCN1CCC(Nc2ccc(S(=O)(=O)NC(=O)c3ccc(N4CCN(CC5=C(c6ccc(Cl)cc6)CC(C)(C)CC5)CC4)cc3Oc3cccc4[nH]ccc34)cc2[N+](=O)[O-])CC1 [Example 194, 4-(4-{[2-(4-chlorophenyl)-4,4-dimethylcyclohex-1-en-1-yl]methyl}piperazin-1-yl)-2-(1H-indol-4-yloxy)-N-[(4-{[1-(2-methoxyethyl)piperidin-4-yl]amino}-3-nitrophenyl)sulfonyl]benzamide] | 27 | 0.151 | 32 |
| CC1(C)CCC(CN2CCN(c3ccc(C(=O)NS(=O)(=O)c4ccc(NC5CCN(CCCO)CC5)c([N+](=O)[O-])c4)c(Oc4cccc5[nH]ccc45)c3)CC2)=C(c2ccc(Cl)cc2)C1 [Example 195, 4-(4-{[2-(4-chlorophenyl)-4,4-dimethylcyclohex-1-en-1-yl]methyl}piperazin-1-yl)-N-[(4-{[1-(3-hydroxypropyl)piperidin-4-yl]amino}-3-nitrophenyl)sulfonyl]-2-(1H-indol-4-yloxy)benzamide] | 11.2 | 0.039 | 6.71 |
| CN(C)CCCc1cccc(-c2ccc(Cl)cc2)c1CN1CCN(c2ccc(C(=O)NS(=O)(=O)c3ccc(NCC4CCOCC4)c([N+](=O)[O-])c3)c(Oc3cccc4[nH]ccc34)c2)CC1 [Example 196, 4-[4-({4′-chloro-3-[3-(dimethylamino)propyl]-1,1′-biphenyl-2-yl}methyl)piperazin-1-yl]-2-(1H-indol-4-yloxy)-N-({3-nitro-4-[(tetrahydro-2H-pyran-4-ylmethyl)amino]phenyl}sulfonyl)benzamide] | 12.4 | 0.032 | > 660 |
